Values of other authors in patent publication US20080161337A1 (priority 2007, published 2008).

Key:
SIBO [1] = settings: for clinical efficacy for treating SIBO: antibiotics traditionally recommended for treating SIBO
SIBO [2] = settings: 21 patients with SIBO
[3] = tested on: functional bowel syndrome patients with abnormal LBT; settings: 20 functional bowel syndrome patients with abnormal LBT; 63-day average follow up
[4] = tested on: IBS patients with abnormal LBT; settings: 82 IBS patients with abnormal LBT; 54-day average follow up
IBS patients [5] = settings: 86 IBS patients; sustained for ten weeks after a ten day course
SIBO [6] = settings: 34 patients with SIBO and functional gastrointestinal symptoms
IBS patients [7] = tested on: IBS patients

Row | Molecule | clinical efficacy for treating SIBO (SIBO [1]) [%] | improvement in functional gastrointestinal symptoms (SIBO [2]) | patients with normalized LBT (SIBO [2]; rifaximin seven days at 1200 mg/day) [%] | combined global improvement rated great and moderate [3] [%] | combined global improvement rated great and moderate [4] [%] | solubility in water | effectiveness against SIBO (SIBO [1]; human, in vivo) | global IBS symptoms (IBS patients [5]) | LBT results and functional gastrointestinal symptoms (SIBO [6]) | results versus placebo (IBS patients [7]; 111 IBS patients randomized to neomycin or placebo) | improvement of symptoms (IBS patients [7]; when the LBT was normalized) [%]
1 | Cc1ncc([N+](=O)[O-])n1CCO [metronidazole] | 5 | – | – | – | – | – | – | – | – | – | –
2 | CO[C@H]1/C=C/O[C@@]2(C)Oc3c(C)c(O)c4c(O)c(c5c(nc6cc(C)ccn65)c4c3C2=O)NC(=O)/C(C)=C\C=C\[C@H](C)[C@H](O)[C@@H](C)[C@@H](O)[C@@H](C)[C@H](OC(C)=O)[C@@H]1C [rifaximin] | – | greater with rifaximin than chlortetracycline | 70 | 63 | 60 | practically insoluble in water | highly effective against SIBO | statistically significant improvement | improved LBT results and functional gastrointestinal symptoms | – | –
3 | neomycin | 25 | – | – | – | – | – | – | – | – | significantly better results | 75
